Like-named read-outs stand apart in the source and are kept apart here. Where a SMILES comes first, the peptide text is derived from it. [ ]: non-standard residue; d: D form. Phe(3-Br) = N[C@@H](Cc1cccc(Br)c1)C(=O)O; Nle = CCCC[C@H](N)C(=O)O

The values that follow come from patent US20240415918A1, “Polypeptide and its use as a CCK receptor agonist/antagonist” (Centre for Regenerative Medicine & Health, Hong Kong …, priority 2021, published 2024).

The conditions of series [1]: male, KM, mouse, in vivo, iv, 1 mg/kg.
The test system of series [2] is memory-deficient mice. Briefly: Morris water maze, memory-deficient mice. It counts as in vivo. Conditions: intraperitoneal injection, CCK4 four times a day 10 days, HT compounds once a day 8 days. The source says: Adult memory-deficient mice were housed under standard conditions with free access to food and water. Our Morris water maze experiment for testing memory-deficient mice mainly included two parts: positioning navigation experiment and space exploration experiment. The experimental methods were the same as Example 5. We randomized memory-deficient mice into six groups, with the first group given intraperitoneal injection of the CCK4 solution, the second group given intraperitoneal injection of the solvent of CCK4 solution as a control, the third group given intraperitoneal injection of the compound HT-267 solution, the fourth group given intraperitoneal injection of the compound HT-177 solution, the fifth group given intraperitoneal injection of the compound HT-178 solution, and the sixth group given intraperitoneal injection of the solvent of compound solution as a control. In the positioning navigation experiment, the treatment and training methods of the first and the second groups were the same as those of the first and second groups in Example 5, that is, four times of treatment a day, four times of training a day, for a total of 10 days of training. The treatment and training methods of the third to sixth groups were the same as the third and fourth groups in Example 5, that is, one treatment a day, four times of training a day, for a total of 8 days of training. In the space exploration experiment, the spatial memory ability of mice was tested in the same way for each group.

Another series deals with senile wild-type mice. Briefly: Morris water maze, senile wild-type mice. Conditions: intraperitoneal injection. It counts as in vivo, mice (C57BL/6).
Series [3] deals with tri-transgenic Alzheimer's mice (3×Tg-AD). Briefly: Morris water maze, Alzheimer's mice. The format is in vivo. Conditions: intraperitoneal injection. The source says: Adult male tri-transgenic Alzheimer's mice (3×Tg-AD) were housed under standard conditions with free access to food and water. Our Morris water maze experiment for testing Alzheimer's mice mainly included two parts: positioning navigation experiment and space exploration experiment. The positioning navigation experiment lasted for 8-10 days, and the mice were put into the water four times a day from four entry points facing the pool wall, and the time they spent in finding the hidden platform under the water surface (evasion latency) was recorded. The space exploration experiment was to remove the platform after the positioning navigation experiment, and then put the mice into the pool, record their swimming tracks within one minute, investigate the memory of the mice on the original platform, and calculate the proportion of exploration duration of the mice in the quadrant where the original platform was located (target quadrant). Alzheimer's mice were confirmed to have memory deficiency in the Morris water maze experiment, showing not only a longer evasion latency for positioning the hidden platform in the positioning navigation experiment, but also a worse memory backtracking ability in the space exploration experiment. We randomized Alzheimer's mice into four groups, with the first group given intraperitoneal injection of the CCK4 solution, the second group given intraperitoneal injection of the solvent of CCK4 solution as a control, the third group given intraperitoneal injection of the compound HT-267 solution, and the fourth group given intraperitoneal injection of the solvent of HT-267 solution as a control.

For series [4] the following is noted: mouse, in vivo; cited from earlier work.
The subject of series [5] is CCK-B receptor carrying green fluorescence. Conditions: intraperitoneal injection, visual cortex imaging.
The nature of series [6]: Pharmacokinetics in KM mice after intravenous administration. Conditions: male, mouse, plasma, 1 mg/kg.
Series [7] concerns the target T1, CCK-B receptors (CHO-CCK) (Homo sapiens, UniProt P32239).
T1 construct: expressed in transfected cells; host or cells: CHO (CHO-CCK model cells)
T1 sequence (P32239 1-447): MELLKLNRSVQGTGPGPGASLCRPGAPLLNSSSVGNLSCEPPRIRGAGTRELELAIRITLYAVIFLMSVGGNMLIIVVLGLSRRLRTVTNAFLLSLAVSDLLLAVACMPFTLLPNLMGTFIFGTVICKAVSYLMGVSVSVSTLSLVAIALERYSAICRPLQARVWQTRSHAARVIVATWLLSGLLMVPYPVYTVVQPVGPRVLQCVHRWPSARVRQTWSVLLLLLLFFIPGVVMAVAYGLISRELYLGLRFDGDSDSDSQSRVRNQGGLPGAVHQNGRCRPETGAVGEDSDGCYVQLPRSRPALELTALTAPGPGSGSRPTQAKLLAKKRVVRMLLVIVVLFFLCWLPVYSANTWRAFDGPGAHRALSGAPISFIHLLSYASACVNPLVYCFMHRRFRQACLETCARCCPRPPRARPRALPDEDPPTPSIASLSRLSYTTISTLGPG
The experiment in a line: Calcium flux (Fluo-8) agonist test on CHO-CCK model cells. It counts as cell-based. Conditions: CHO-CCK cells; for EC50: compound alone, 100% = 20 nM CCK8. The method, boiled down:
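Agonist-mode Fluo-8 calcium flux read on CHO-CCK cells after dye loading 30 min at 37 °C plus 30 min at room temperature.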
For orientation: Calcium flux is commonly read through the fluorescence of an indicator in the cells.

Series [8] has as its target T1, CCK-B receptors (CHO-CCK). Briefly: Calcium flux (Fluo-8) antagonist test on CHO-CCK model cells in presence of CCK8. It counts as cell-based. Conditions: compound together with 10 nM CCK8.
The subject of series [9] is neocortex of memory-deficient mice. The experiment in a line: Long-term potentiation, in vitro field potential recording of brain slices (MED64), memory-deficient mice. It counts as cell-based. The settings on record: compound injected for five minutes. The source says: An in vitro electrophysiological electrical signal recording method was used to investigate whether compound HT-267, compound HT-177, and compound HT-178 can induce long-term potentiation in the neocortex of memory-deficient mice. The MED64 low-noise multi-electrode recording system was used to record the electrical signals of brain slices cultured in vitro.

A short description of the next series: in vivo. The settings on record: male, KM, mouse, iv, 1 mg/kg, T1/2.
The test system of series [10] is memory-deficient mice. The experiment in a line: New object recognition experiment, memory-deficient mice. Conditions: intraperitoneal injection. It counts as in vivo. The source says:
The new object recognition experiment is a highly validated method of cognitive memory, designed by Ennaceur & Delacour (1988) based on the exploration characteristics of rodents to new environments, and this model evaluates the memory function of the tested animal based on the length of time that the animal spends in exploring familiar objects it has seen in the environment and new objects it has not seen. […] The experiment is usually divided into three stages: 1. Adaptation period: let the animal be familiar with the experimental environment, and no objects are placed in the experimental box; 2. Familiarization period: place two identical objects in the experimental box and let the mice explore freely for 10 minutes; 3. Test period: put a new object in the experimental box to replace one of the old objects, and the positions of the objects remain unchanged. The exploration of mice was recorded with video, and the time spent in exploring the old and new objects by mice was analyzed, and the proportion of time spent in exploring the new object by mice in the test period accounting for the total time for exploring the objects was calculated, that is, the recognition index of new objects.
Adult memory-deficient mice were housed under standard conditions with free access to food and water. Our new object recognition experiment for testing memory-deficient mice mainly included the adaptation period, the familiarization period, and the test period. The experimental method was the same as Example 12.
We randomized memory-deficient mice into four groups, with one group given intraperitoneal injection of the solvent of drug as the control group, administration group 1 given intraperitoneal injection of the compound HT-267 solution, administration group 2 given intraperitoneal injection of the compound HT-177 solution, and administration group 3 given intraperitoneal injection of the compound HT-178 solution. After the adaptation and familiarization period training, we tested the recognition memory of several groups of mice in the test period experiment.

Take `CSCC[C@H](NC(=O)[C@@H](N)Cc1c[nH]c2ccccc12)C(=O)N[C@@H](CC(=O)O)C(=O)N[C@@H](Cc1ccccc1)C(N)=O` [CCK4, Trp-Met-Asp-Phe-NH2, reference compound]: the “concentration in blood samples (below detection limitation)” value in series [1] is < 50 ng/mL. The results for the “proportion of exploration duration in the target quadrant vs control” value (from here on “proportion of exploration duration … vs control”) (with memory-deficient mice [2]; in [3]) were “significantly higher than that in the control group” and “significantly higher than the control group”, respectively. Also, the “evasion latency in positioning navigation experiment vs control” value in the series with senile wild-type mice is listed as “shorter than that of the control group”; in [3] (CCK4 four times a day 10 days, HT-267 once a day 8 days) it was “shorter than that of the control group”. Besides, the “spatial exploration tracks in space exploration experiment” value (in the series with senile wild-type mice; in series [3]) was “more spatial exploration tracks at the original position of the platform” each time. Further, the half-life entry in series [4] is “less than 5 minutes”.

Consider `CCCC[C@H](NC(=O)[C@H](Cc1c[nH]c2ccccc12)NC(C)=O)C(=O)N[C@@H](CC(=O)O)C(=O)N[C@@H](Cc1cccc(Br)c1)C(N)=O` [HT-177, Ac-Trp-Nle-Asp-Phe(3-Br)-NH2] (Ac-W[Nle]D[Phe(3-Br)]-NH2), for which the “proportion of exploration duration … vs control” value in the series with memory-deficient mice [2] is “significantly higher than that in the control group”. In series [5], the “blood-brain barrier crossing / green fluorescence signal of CCK-B receptor sensor” value is “crossed the blood-brain barrier and was bound to the CCK-B receptor”. Also, in [6], the AUC(0-inf) was 641 ng·h/mL, the concentration peaked (Cmax) at 403 ng/mL and the Tmax amounted to 15 min. The “agonistic/antagonistic activity on CCK-B receptors (in words)” value in series [7] (calcium signal) is reported as “more active”. The EC50 in [7] is 0.056 nM. Also, the EC50 in series [8] is 279 nM. In addition, the “basal field potential after administration (long-term potentiation)” value in series [9] was “enhanced, and the enhancement lasted for more than one hour”. In the series “in vivo”, this compound gave a half-life of 43.3 min. For the same compound, the “recognition index of new objects vs control” value in the series on memory-deficient mice [10] is “significantly higher than that of the control group”.

Turning to `CCCC[C@H](NC(=O)[C@@H](Cc1c[nH]c2ccccc12)NC(C)=O)C(=O)N[C@@H](CC(=O)O)C(=O)N[C@@H](Cc1cccc(Br)c1)C(N)=O` [HT-178, Ac-D-Trp-Nle-Asp-Phe(3-Br)-NH2] (Ac-[dW][Nle]D[Phe(3-Br)]-NH2), the “proportion of exploration duration … vs control” value in the series with memory-deficient mice [2] was “significantly higher than that in the control group”. Besides, the figures for the EC50 in [7] and in series [8] were 2.81 nM and 528 nM, respectively. Moreover, in series [9], the “basal field potential after administration (long-term potentiation)” value is “enhanced, and the enhancement lasted for more than one hour”. Moreover, the “recognition index of new objects vs control” value with memory-deficient mice [10] is given as “significantly higher than that of the control group”.

Usually half-life stands for the time in which the quantity being followed falls by half. In general, AUC(0-inf) refers to total exposure, with the tail of the curve extrapolated. Read a low AUC(0-inf) as low exposure. As a reminder, the Cmax is the maximum level reached in the sampled fluid or tissue. For orientation: Tmax means the time at which the peak concentration occurs. As a reminder, the EC50 is the concentration that produces a half-maximal response.
